Results published in paper PMC7717600, “Novel [(N-alkyl-3-indolylmethylene)hydrazono]oxindoles arrest cell cycle and induce cell apoptosis by inhibiting CDK2 and Bcl-2: synthesis, biological evaluation and in silico studies” (Journal of Enzyme Inhibition and Medicinal Chemistry, 2020).
Like-named read-outs stand apart in the source and are kept apart here.

Key:
SNB-75 = test: cells; conditions: Homo sapiens
EKVX = test: cells; conditions: Homo sapiens
ACHN = test: cells; conditions: Homo sapiens
CCRF-CEM = test: cells; conditions: Homo sapiens
SK-MEL-28 = test: cells; conditions: Homo sapiens
[1] = system: breast T-47D cancer cells; test: Cell cycle analysis by DNA flow cytometry; type: cell-based, human; conditions: 8a at GI50 concentration (0.41 µM), 24 h
Experimental: were washed twice with ice-cold phosphate buffered saline (PBS). Subsequently, the treated cells were collected by centrifugation, fixed in ice-cold 70% (v/v) ethanol, washed with PBS, re-suspended with 100 μg/mL RNase, stained with 40 μg/mL PI, and analyzed by flow cytometry using FACS Calibur (Becton Dickinson, BD, Franklin Lakes, NJ, USA). The cell cycle distributions were calculated using CellQuest software 5.1 (Becton Dickinson).

NCI/ADR-RES = test: cells; conditions: Homo sapiens
HOP-92 = test: cells; conditions: Homo sapiens
CDK2 = CDK2 (Homo sapiens, UniProt P24941); test: CDK2 inhibition assay; type: biochemical; conditions: CDK2, mean ± SE of three
Experimental: and of the test compound in a final volume of 10 µL, all in a reaction buffer (60 mM HEPES-NaOH, pH 7.5, 3 mM MgCl2, 3 mM MnCl2, 3 μM Na-orthovanadate, 1.2 mM DTT, 2.5 μg / 50 μl PEG20.000). The reactions were stopped by adding 5 µL of 3 % aq. H3PO4. Aliquots were spotted onto P-81 phosphocellulose (Whatman), washed 3× with 0.5 % aq. H3PO4 and finally air-dried. Kinase inhibition was quantified using a FLA-7000 digital image analyzer (Fujifilm).

UO-31 = test: cells; conditions: Homo sapiens
SK-OV-3 = test: cells; conditions: Homo sapiens, SK-OV-3, read-out: LC50
T-47D = test: cells; conditions: Homo sapiens, T47D
[2] = system: panel of 59 human cancer cell lines; test: NCI screening, panel and subpanel summaries; conditions: for GI50: Homo sapiens
Experimental: GI50 values reflect the level for growth inhibitory effect, whereas TGI represents cytostatic impact. In addition, LC50 parameter is considered to be the cytotoxicity parameter for the examined hybrid.
Furthermore, dividing the full-panel MG-MID (µM) for the examined derivative by its individual subpanel MG-MID (µM) provides an index which is regarded as a measure for its selectivity.
The NCI-USA anticancer screening was carried out following the NCI, Bethesda, Drug Evaluation Branch protocol[22–24], utilising the SRB protein assay[21], as reported earlier[34]^,[35].
NCI-in vitro antitumor activity towards 59 cancer cell lines
The cytotoxicity assays were performed at National Cancer Institute (NCI), Bethesda, USA (against 59 cell lines). The human tumor cell lines of the cancer screening panel were grown in
screening experiment, cells were inoculated into 96 well microtiter plates in 100 µ at plating densities ranging from 5000 to 40,000 cells/well depending on the doubling time of individual
and 100% relative humidity for 24 h prior to addition of experimental drugs. After 24 h, two
plates of each cell line were fixed in situ with trichloroacetic acid (TCA), to represent a
measurement of the cell population for each cell line at the time of drug addition (Tz).
Experimental drugs were solubilized in dimethyl sulfoxide at 400-fold the desired final
maximum test concentration and stored frozen prior to use. At the time of drug addition, an
aliquot of frozen concentrate was thawed and diluted to twice the desired final maximum test
concentration with complete medium containing 50 µg/ml gentamicin. Additional four, 10-fold
or ½ log serial dilutions were made to provide a total of five drug concentrations plus control.
Aliquots of 100 µl of these different drug dilutions were added to the appropriate microtiter wells
already containing 100 µl of medium, resulting in the required final drug concentrations.
Triplicate wells were prepared for each individual dose. Following drug addition, the plates were

HCT-116 = test: cells; conditions: Homo sapiens
MDA-MB-468 = test: cells; conditions: Homo sapiens
MDA-MB-231/ATCC = test: cells; conditions: Homo sapiens
MCF7 = test: cells; conditions: Homo sapiens
SK-MEL-2 = test: cells; conditions: Homo sapiens
HT29 = test: cells; conditions: Homo sapiens
SK-MEL-5 = test: cells; conditions: Homo sapiens
MOLT-4 = test: cells; conditions: Homo sapiens
[3] = system: breast T-47D cancer cells; test: Annexin V-FITC/PI apoptosis assay; type: cell-based, human
Source text: In an attempt to further investigate whether the antiproliferative activity for conjugate 8a is harmonious with the apoptosis induction within T-47D cells pointed out by the increased cell population in sub-G1 phase in 8a-treated T-47D cells (Figure 3), Annexin V-FITC/PI dual staining analysis was used for the apoptosis assay (Figure 4).
Phosphatidylserine externalisation effect of conjugate 8a over breast T-47D cancer cell line was investigated using Annexin-V-FITC Apoptosis Detection Kit by flow cytometry, as described earlier.
4.2.4. Cell Cycle Analysis
Subsequently, the treated cells
Annexin V-FITC Apoptosis Assay
period of 30 min at 4 °C.
Technologies, Darmstadt, Germany).
μl PEG20.000). […] H3PO4. Aliquots were […]

NCI-H522 = test: cells; conditions: Homo sapiens
HOP-62 = test: cells; conditions: Homo sapiens
TK-10 = test: cells; conditions: Homo sapiens
SW-620 = test: cells; conditions: Homo sapiens
OVCAR-5 = test: cells; conditions: Homo sapiens
OVCAR-3 = test: cells; conditions: Homo sapiens
SR = test: cells; conditions: Homo sapiens
SF-268 = test: cells; conditions: Homo sapiens

## CCCn1cc(C=NN=C2C(=O)Nc3ccc(C)cc32)c2ccccc21 [Compound 8a]
SNB-75; SNB-75
  GI50: 2.31 µM
SNB-75; SNB-75, read-out: LC50
  CC50: > 100 µM
EKVX
  GI50: 2.36 µM
EKVX; read-out: LC50
  CC50: > 100 µM
ACHN
  GI50: 3.56 µM
ACHN; read-out: LC50
  CC50: > 100 µM
CCRF-CEM
  GI50: 1.94 µM
CCRF-CEM; read-out: LC50
  CC50: > 100 µM
SK-MEL-28; SK-MEL-28
  GI50: 4.7 µM
SK-MEL-28; SK-MEL-28, read-out: LC50
  CC50: > 100 µM
[1]; control 1.25%
  cell population in sub-G1 phase: 17.73%
[1]; control 19.19%
  G2/M phase fraction: 34.05%
NCI/ADR-RES
  GI50: 6.39 µM
NCI/ADR-RES; read-out: LC50
  CC50: > 100 µM
HOP-92; HOP-92
  GI50: 1.87 µM
HOP-92; HOP-92, read-out: LC50
  CC50: > 100 µM
CDK2
  IC50: 0.85 ± 0.03 µM
UO-31; UO-31
  GI50: 2.28 µM
UO-31; UO-31, read-out: LC50
  CC50: > 100 µM
SK-OV-3
  CC50: > 100 µM
T-47D; T-47D
  GI50: 0.416 µM
T-47D; read-out: LC50
  CC50: > 100 µM
[2]; 10 µM single dose, all cell lines
  mean GI %: 59%
[2]; 1.00E-5 Molar, one dose mean graph
  Mean Growth Percent: 41.08%
[2]; Breast Cancer subpanel
  Selectivity index: 1.00
[2]; CNS Cancer subpanel
  Selectivity index: 0.75
[2]; Colon Cancer subpanel
  Selectivity index: 1.25
[2]; read-out: Full panel MG-MID (GI50), five-dose
  GI50: 3.1 µM
[2]; read-out: GI50 values range, five-dose, across cell lines except UACC-257, TK-10, HS 578 T
  GI50: 1.17 to 8.41 µM
[2]; read-out: MG-MID (GI50), Breast Cancer subpanel
  GI50: 3.09 µM
[2]; read-out: MG-MID (GI50), CNS Cancer subpanel
  GI50: 4.08 µM
[2]; read-out: MG-MID (GI50), Colon Cancer subpanel
  GI50: 2.47 µM
[2]; read-out: MG-MID (GI50), Leukaemia subpanel
  GI50: 1.33 µM
[2]; read-out: MG-MID (GI50), Melanoma subpanel
  GI50: 3.45 µM
[2]; read-out: MG-MID (GI50), NSCL Cancer subpanel
  GI50: 3.22 µM
[2]; read-out: MG-MID (GI50), Ovarian Cancer subpanel
  GI50: 3.24 µM
[2]; read-out: MG-MID (GI50), Prostate Cancer subpanel
  GI50: 2.85 µM
[2]; read-out: MG-MID (GI50), Renal Cancer subpanel
  GI50: 4.23 µM
[2]; read-out: sub-panel GI50 (MG-MID) range, five-dose
  GI50: 1.33 to 4.23 µM
[2]; Leukaemia subpanel
  Selectivity index: 2.33
[2]; Melanoma subpanel
  Selectivity index: 0.89
[2]; NSCL Cancer subpanel
  Selectivity index: 0.96
[2]; Ovarian Cancer subpanel
  Selectivity index: 0.95
[2]; Prostate Cancer subpanel
  Selectivity index: 1.08
[2]; Renal Cancer subpanel
  Selectivity index: 0.73
[2]; five-dose mean graph
  Log10GI50 _MID: -5.59 Molar
  Log10LC50 _MID: -4.12 Molar
  Log10TGI _MID: -4.69 Molar
[2]; five-dose, against 22 cancer cell lines
  TGI range: 2.96 to 8.03 µM
[2]; five-dose, remaining cancer cell lines
  TGI interval: 10.6 to 96.6 µM
[2]; full-panel MG-MID / subpanel MG-MID
  selectivity ratios range: 0.73 to 2.33
HCT-116; HCT-116
  GI50: 1.75 µM
HCT-116; HCT-116, read-out: LC50, HCT-116
  CC50: 19 µM
MDA-MB-468; MDA-MB-468
  GI50: 1.69 µM
MDA-MB-468; MDA-MB-468, read-out: LC50
  CC50: 79.4 µM
MDA-MB-231/ATCC; MDA-MB-231
  GI50: 1.81 µM
MDA-MB-231/ATCC; MDA-MB-231, read-out: LC50
  CC50: > 100 µM
MCF7; MCF7
  GI50: 1.54 µM
MCF7; MCF7, read-out: LC50
  CC50: > 100 µM
SK-MEL-2; SK-MEL-2
  GI50: 2.42 µM
SK-MEL-2; SK-MEL-2, read-out: LC50
  CC50: > 100 µM
HT29; HT-29
  GI50: 3.4 µM
HT29; HT-29, read-out: LC50
  CC50: > 100 µM
SK-MEL-5; SK-MEL-5
  GI50: 2.86 µM
SK-MEL-5; SK-MEL-5, read-out: LC50, SK-MEL-5
  CC50: 47.4 µM
MOLT-4; MOLT-4, MOLT-4
  GI50: 0.682 µM
MOLT-4; MOLT-4, read-out: LC50
  CC50: > 100 µM
[3]; control 0.26%
  apoptotic cells, early apoptotic phase: 4.82%
[3]; control 0.47%
  apoptotic cells, late apoptotic phase: 14.62%
[3]; vs untreated control
  increase in total apoptosis: about 26 fold
NCI-H522; NCI-H522
  GI50: 1.81 µM
NCI-H522; NCI-H522, read-out: LC50
  CC50: > 100 µM
HOP-62; HOP-62
  GI50: 4.17 µM
HOP-62; HOP-62, read-out: LC50
  CC50: > 100 µM
TK-10; TK-10
  GI50: 11.1 µM
TK-10; TK-10, read-out: LC50
  CC50: > 100 µM
SW-620; SW-620
  GI50: 2.97 µM
SW-620; SW-620, read-out: LC50
  CC50: > 100 µM
OVCAR-5; OVCAR-5
  GI50: 4.04 µM
OVCAR-5; OVCAR-5, read-out: LC50
  CC50: > 100 µM
OVCAR-3; OVCAR-3
  GI50: 1.36 µM
OVCAR-3; OVCAR-3, read-out: LC50
  CC50: > 100 µM
SR
  GI50: 0.521 µM
SR; read-out: LC50
  CC50: > 100 µM
SF-268; SF-268
  GI50: 3.33 µM
SF-268; SF-268, read-out: LC50
  CC50: > 100 µM
